Laboratory results taken from US8710233B2 (Gruenenthal GmbH, priority 2005, dated 2014).
Like-named read-outs stand apart in the source and are kept apart here.

Key:
Type in all cases: cell-based
[1] = molecular target: T1, vanilloid receptor (VR1) (Homo sapiens, UniProt Q8NER1); test: FLIPR Ca2+ influx assay on CHO K1 cells transfected with the VR1 gene (pharmacological method II)
T1 construct: expressed in transfected cells; host or cells: CHO K1 cells (ECACC), stably transfected

[2] = molecular target: T2, vanilloid receptor 1 (VR1/TRPV1) of the rat species (Rattus norvegicus, UniProt O35433); test: FLIPR Ca2+ influx assay on rat dorsal root ganglia cells (pharmacological method I)
T2 construct: The spinal column is removed from decapitated rats; from tissue; host or cells: primary cells dissociated from rat dorsal root ganglia
Source text: I. Functional Investigation of the Vanilloid Receptor 1 (VR1/TRPV1 Receptor)
The agonistic or antagonistic action of the substances to be investigated on the vanilloid receptor 1 (VR1/TRPV1) of the rat species may be determined by the following assay. According to this assay, the influx of Ca^2+ through the receptor channel is quantified with the assistance of a Ca^2+-sensitive dye (type Fluo-4, Molecular Probes Europe BV, Leiden, Netherlands) in a Fluorescent Imaging Plate Reader (FLIPR, Molecular Devices, Sunnyvale, USA).
The spinal column is removed from decapitated rats and is placed directly in cold, i.e. located in an ice bath, HBSS buffer (Hank's buffered saline solution, Gibco Invitrogen GmbH, Karlsruhe, Germany) combined with 1 vol. % (percent by volume) of an AA solution (antibiotic/antimycotic solution, PAA, Pasching, Austria). The spinal column is cut open longitudinally and removed together with fasciae from the spinal canal. The dorsal root ganglia (DRGs) are then removed and in turn stored in cold HBSS buffer combined with 1 vol. % of an AA solution. The DRGs, from which all traces of blood and spinal nerves have been removed, are in each case transferred into 500 μL of cold collagenase type 2 (PAA, Pasching, Austria) and incubated for 35 minutes at 37° C. […] Once incubation is complete, the enzyme solution is carefully removed by pipette and the DRGs, which are left behind, are in each case combined with 500 μL of complete medium.
The DRGs are in each case repeatedly suspended, drawn by means of a syringe through […], no. 12 and no. 16 cannulas and transferred into 50 mL Falcon microtubes and each tube is made up to 15 mL with complete medium. The contents of each Falcon microtube are in each case filtered through a 70 μm Falcon filter insert and centrifuged for 10 minutes at 1200 revolutions and room temperature. The resultant pellet is in each case resuspended in 250 μL of complete medium and the cell count determined.
The number of cells in the suspension is adjusted to 3×10^5 per mL and a 150 μL portion of this suspension is in each case placed in a well of the cell culture plate which has been coated as described above.
The cells are then loaded with 2 μM Fluo-4 and 0.01 vol. % Pluronic F127 (Molecular Probes Europe BV, Leiden, Netherlands) in HBSS buffer (Hank's buffered saline solution, Gibco Invitrogen GmbH, Karlsruhe, Germany) for 30 min at 37° C., washed 3× with HBSS buffer and, after a further 15 minutes' incubation at room temperature, used for Ca^2+ measurement in the FLIPR assay. […] Quantification proceeds by measuring the highest fluorescence intensity (FC, fluorescence counts) over time.
The FLIPR protocol comprises 2 additions of substance. The compounds to be tested (10 μM) are firstly pipetted onto the cells and Ca^2+ influx is compared with the control (capsaicin 10 μM). This provides the percentage activation relative to the Ca^2+ signal after addition of 10 μM of capsaicin (CP). After 5 minutes' incubation, 100 nM of capsaicin are added and the influx of Ca^2+ is again determined.
Desensitising agonists and antagonists result in suppression of Ca^2+ influx. The percentage inhibition in comparison with the maximum achievable inhibition with 10 μM capsaicin is calculated.
Triplicate determinations (n═3) are performed and these are repeated in at least 3 independent experiments […].

[3] = molecular target: VR1/TRPV1 receptor (Homo sapiens, UniProt Q8NER1); test: IC50 (human) after pH stimulus
[4] = Table 2, displacement of capsaicin (100 nM), Cheng-Prusoff, read-out: Ki (human)
[5] = Table 2, displacement of capsaicin (100 nM), Cheng-Prusoff, read-out: Ki (rat)
[6] = table 4, capsaicin, read-out: Ki (human) Cap.
[7] = table 4, capsaicin, read-out: Ki (rat) Cap.
[8] = Ki (rat), Table 2, displacement of capsaicin (100 nM), Cheng-Prusoff

T2 sequence (O35433 whole entry): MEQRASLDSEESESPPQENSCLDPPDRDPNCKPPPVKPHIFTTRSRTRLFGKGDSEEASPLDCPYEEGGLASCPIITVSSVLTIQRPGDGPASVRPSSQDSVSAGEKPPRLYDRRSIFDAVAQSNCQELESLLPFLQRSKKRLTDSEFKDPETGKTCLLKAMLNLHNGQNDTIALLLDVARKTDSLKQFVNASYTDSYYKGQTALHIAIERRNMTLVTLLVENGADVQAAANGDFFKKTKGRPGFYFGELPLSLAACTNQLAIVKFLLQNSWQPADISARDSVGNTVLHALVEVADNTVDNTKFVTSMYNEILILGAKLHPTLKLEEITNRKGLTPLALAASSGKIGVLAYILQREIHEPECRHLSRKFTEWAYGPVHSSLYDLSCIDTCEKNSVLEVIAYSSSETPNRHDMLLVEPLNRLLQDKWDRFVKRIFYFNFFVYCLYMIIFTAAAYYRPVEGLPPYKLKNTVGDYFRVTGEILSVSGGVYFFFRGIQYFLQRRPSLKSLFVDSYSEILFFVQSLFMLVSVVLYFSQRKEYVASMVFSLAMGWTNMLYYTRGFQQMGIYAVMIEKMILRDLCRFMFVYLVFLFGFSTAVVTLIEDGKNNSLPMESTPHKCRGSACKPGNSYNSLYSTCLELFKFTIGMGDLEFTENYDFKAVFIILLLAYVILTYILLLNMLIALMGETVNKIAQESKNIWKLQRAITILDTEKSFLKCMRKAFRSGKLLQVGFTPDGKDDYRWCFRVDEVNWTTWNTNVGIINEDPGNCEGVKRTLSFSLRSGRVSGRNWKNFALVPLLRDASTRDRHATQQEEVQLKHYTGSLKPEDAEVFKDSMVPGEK
VR1/TRPV1 receptor, sequence (Q8NER1 whole entry): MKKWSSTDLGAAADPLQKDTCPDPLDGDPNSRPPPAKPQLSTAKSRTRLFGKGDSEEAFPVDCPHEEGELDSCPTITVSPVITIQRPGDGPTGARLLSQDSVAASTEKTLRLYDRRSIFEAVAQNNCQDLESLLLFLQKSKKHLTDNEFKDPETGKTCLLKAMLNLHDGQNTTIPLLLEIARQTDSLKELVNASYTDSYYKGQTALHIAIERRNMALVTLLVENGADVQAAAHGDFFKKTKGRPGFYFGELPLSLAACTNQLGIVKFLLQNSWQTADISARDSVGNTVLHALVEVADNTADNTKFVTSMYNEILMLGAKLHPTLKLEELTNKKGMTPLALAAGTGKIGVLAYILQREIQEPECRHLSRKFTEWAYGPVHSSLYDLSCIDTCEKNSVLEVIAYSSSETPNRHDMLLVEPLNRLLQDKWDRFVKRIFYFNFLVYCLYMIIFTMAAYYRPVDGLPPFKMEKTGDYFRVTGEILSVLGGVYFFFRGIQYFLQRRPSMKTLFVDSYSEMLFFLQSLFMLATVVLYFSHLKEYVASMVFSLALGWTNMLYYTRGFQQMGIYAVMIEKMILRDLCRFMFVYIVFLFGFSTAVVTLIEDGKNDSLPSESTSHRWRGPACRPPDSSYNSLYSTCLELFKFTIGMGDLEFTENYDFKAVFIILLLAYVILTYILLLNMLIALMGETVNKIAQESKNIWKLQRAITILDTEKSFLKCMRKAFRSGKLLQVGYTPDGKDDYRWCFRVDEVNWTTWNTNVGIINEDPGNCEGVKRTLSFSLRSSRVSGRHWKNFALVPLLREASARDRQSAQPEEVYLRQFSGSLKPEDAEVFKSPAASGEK
T1 sequence (Q8NER1 whole entry): as above

CC(C(=O)NCc1ccc(C(F)(F)F)nc1Br)c1ccc(NS(C)(=O)=O)c(F)c1 (stereo not shown) [Example 6, N-((2-bromo-6-(trifluoromethyl)pyridin-3-yl)methyl)-2-(3-fluoro-4-(methylsulfonamido)phenyl)propanamide]
Ki [1, 4]: 169 nM
Ki [2, 5]: 95 nM
IC50 ([3]; Table 2): 2610 nM

C[C@@H](C(=O)NCc1ccc(C(F)(F)F)nc1N1CCCCC1)c1ccc(NS(C)(=O)=O)c(F)c1 [Example 11, (R)-2-(3-fluoro-4-(methylsulfonamido)phenyl)-N-((2-(piperidin-1-yl)-6-(trifluoromethyl)pyridin-3-yl)methyl)propanamide]
Ki [1, 4]: 0.3 nM
Ki [2, 5]: 1.1 nM
IC50 ([3]; Table 2): 46.7 nM

CC(C(=O)NCc1ccc(C(F)(F)F)nc1N1CCOCC1)c1ccc(NS(C)(=O)=O)c(F)c1 (stereo not shown) [Example 12, 2-(3-fluoro-4-(methylsulfonamido)phenyl)-N-((2-morpholino-6-(trifluoromethyl)pyridin-3-yl)methyl)propanamide]
Ki [1, 4]: 1.3 nM
Ki [2, 5]: 4.3 nM
IC50 ([3]; Table 2): 169 nM

CC(C(=O)NCc1ccc(C(F)(F)F)nc1N1CCCC1)c1ccc(NS(C)(=O)=O)c(F)c1 (stereo not shown) [Example 13, 2-(3-fluoro-4-(methylsulfonamido)phenyl)-N-((2-(pyrrolidin-1-yl)-6-(trifluoromethyl)pyridin-3-yl)methyl)propanamide]
Ki [1, 4]: 0.6 nM
Ki [2, 5]: 3.8 nM
IC50 ([3]; Table 2): 211 nM

CCN(CC)c1nc(C(F)(F)F)ccc1CNC(=O)C(C)c1ccc(NS(C)(=O)=O)c(F)c1 (stereo not shown) [Example 15, N-((2-(diethylamino)-6-(trifluoromethyl)pyridin-3-yl)methyl)-2-(3-fluoro-4-(methylsulfonamido)phenyl)propanamide]
Ki [1, 6]: 3.5 nM
Ki [2, 7]: 12 nM
IC50 ([3]; table 4): 148 nM

COc1nc(C(F)(F)F)ccc1CNC(=O)C(C)c1ccc(NS(C)(=O)=O)c(F)c1 (stereo not shown) [Example 18, 2-(3-fluoro-4-(methylsulfonamido)phenyl)-N-((2-methoxy-6-(trifluoromethyl)pyridin-3-yl)methyl)propanamide]
Ki [1, 4]: 68.9 nM
Ki [2, 8]: 47 nM
IC50 ([3]; Table 2): 2710 nM

CC(C)Oc1nc(C(F)(F)F)ccc1CNC(=O)C(C)c1ccc(NS(C)(=O)=O)c(F)c1 (stereo not shown) [Example 20, 2-(3-fluoro-4-(methylsulfonamido)phenyl)-N-((2-isopropoxy-6-(trifluoromethyl)pyridin-3-yl)methyl)propanamide]
Ki [1, 4]: 2.1 nM
Ki [2, 8]: 5.4 nM
IC50 ([3]; Table 2): 93 nM

CC(C(=O)NCc1ccc(C(F)(F)F)nc1OC1CCCC1)c1ccc(NS(C)(=O)=O)c(F)c1 (stereo not shown) [Example 21, N-((2-cyclopentyloxy-6-(trifluoromethyl)pyridin-3-yl)methyl)-2-(3-fluoro-4-(methylsulfonamido)phenyl)propanamide]
Ki [1, 4]: 0.9 nM
Ki [2, 5]: 1.3 nM
IC50 ([3]; Table 2): 29 nM

CC(C(=O)NCc1ccc(C(F)(F)F)nc1-c1ccccc1)c1ccc(NS(C)(=O)=O)c(F)c1 (stereo not shown) [Example 22, 2-(3-fluoro-4-(methylsulfonamido)phenyl)-N-((2-phenyl-6-(trifluoromethyl)pyridin-3-yl)methyl)propanamide]
Ki [1, 4]: 6.4 nM
Ki [2, 5]: 4.9 nM
IC50 ([3]; Table 2): 62 nM

C[C@H](C(=O)NCc1ccc(C(F)(F)F)cc1N1CCCCC1)c1ccc(NS(C)(=O)=O)c(F)c1 [Example 31, (S)-2-(3-fluoro-4-(methylsulfonamido)phenyl)-N-(2-(piperidin-1-yl)-4-(trifluoromethyl)benzyl)propanamide]
Ki [1, 4]: 0.6 nM
Ki [2, 5]: 0.5 nM
IC50 ([3]; Table 2): 50 nM

CC(C(=O)NCc1ccc(C(F)(F)F)cc1N1CCOCC1)c1ccc(NS(C)(=O)=O)c(F)c1 (stereo not shown) [Example 33, 2-(3-fluoro-4-(methylsulfonamido)phenyl)-N-(2-morpholino-4-(trifluoromethyl)benzyl)propanamide]
Ki [1, 4]: 7.2 nM
Ki [2, 5]: 4.8 nM
IC50 ([3]; Table 2): 1380 nM

CCCN(CCC)c1cc(C(F)(F)F)ccc1CNC(=O)C(C)c1ccc(NS(C)(=O)=O)c(F)c1 (stereo not shown) [Example 37, N-(2-(dipropylamino)-4-(trifluoromethyl)benzyl)-2-(3-fluoro-4-(methylsulfonamido)phenyl)propanamide]
Ki [1, 6]: 0.3 nM
Ki [2, 7]: 1.8 nM
IC50 ([3]; table 4): 26.2 nM

CCCCOc1cc(C(F)(F)F)ccc1CNC(=O)C(C)c1ccc(NS(C)(=O)=O)c(F)c1 (stereo not shown) [Example 40, N-(2-butoxy-4-(trifluoromethyl)benzyl)-2-(3-fluoro-4-(methylsulfonamido)-phenyl)propanamide]
Ki [1, 6]: 1 nM
Ki [2, 7]: 0.4 nM
IC50 ([3]; table 4): 48 nM

CC(C(=O)NCc1ccc(C(F)(F)F)cc1OC1CCCC1)c1ccc(NS(C)(=O)=O)c(F)c1 (stereo not shown) [Example 42, N-(2-(cyclopentyloxy)-4-(trifluoromethyl)benzyl)-2-(3-fluoro-4-(methylsulfonamido)phenyl)propanamide]
Ki [1, 6]: 0.6 nM
Ki [2, 7]: 0.5 nM
IC50 ([3]; table 4): 26 nM

CC(C(=O)NCc1ccc(C(C)(C)C)cc1N1CCCCC1)c1ccc(NS(C)(=O)=O)c(F)c1 (stereo not shown) [Example 63, N-(4-tert-butyl-2-(piperidin-1-yl)benzyl)-2-(3-fluoro-4-(methylsulfonamido)-phenyl)propanamide]
Ki [1, 6]: 28.6 nM
Ki [2, 7]: 23.9 nM
inhibition at 1 µM ([3]; @ 1 μM, ne = no effect, read-out: inhibition in percent, IC50 (human) after pH stimulus): 70%

CC(C(=O)NCc1ccc(C(F)(F)F)nc1N1CCCCC1)c1ccc(NS(C)(=O)=O)c(Cl)c1 (stereo not shown) [Example 64, 2-(3-chloro-4-(methylsulfonamido)phenyl)-N-((2-(piperidin-1-yl)-6-(trifluoromethyl)pyridin-3-yl)methyl)propanamide]
Ki [1, 4]: 2.3 nM
Ki [2, 5]: 6.3 nM

CC(C(=O)NCc1ccc(C(F)(F)F)nc1N1CCCC1)c1ccc(NS(C)(=O)=O)c(Cl)c1 (stereo not shown) [Example 65, 2-(3-chloro-4-(methylsulfonamido)phenyl)-N-((2-(pyrrolidin-1-yl)-6-(trifluoromethyl)pyridin-3-yl)methyl)propanamide]
Ki [1, 4]: 4.2 nM
Ki [2, 5]: 36.5 nM

CC(C(=O)NCc1ccc(C(F)(F)F)cc1N1CCCCC1)c1ccc(NS(C)(=O)=O)c(Cl)c1 (stereo not shown) [Example 66, 2-(3-chloro-4-(methylsulfonamido)phenyl)-N-(2-(piperidin-1-yl)-4-(trifluoromethyl)benzyl)propanamide]
Ki [1, 4]: 2.9 nM
Ki [2, 5]: 3.7 nM

CC(C(=O)NCc1ccc(C(F)(F)F)nc1N1CCCCC1)c1ccc(NS(C)(=O)=O)c(Br)c1 (stereo not shown) [Example 67, 2-(3-bromo-4-(methylsulfonamido)phenyl)-N-((2-(piperidin-1-yl)-6-(trifluoromethyl)pyridin-3-yl)methyl)propanamide]
Ki [1, 4]: 3.2 nM
Ki [2, 5]: 5.1 nM

CC(C(=O)NCc1ccc(C(F)(F)F)cc1N1CCCC1)c1ccc(NS(C)(=O)=O)c(Br)c1 (stereo not shown) [Example 69, 2-(3-bromo-4-(methylsulfonamido)phenyl)-N-(2-(pyrrolidin-1-yl)-4-(trifluoromethyl)benzyl)propanamide]
Ki [1, 4]: 1.7 nM
Ki [2, 5]: 2.4 nM

CC(C(=O)NCc1ccc(C(C)(C)C)cc1C#N)c1ccc(NS(C)(=O)=O)c(F)c1 (stereo not shown) [Example 70, N-(4-tert-butyl-2-cyanobenzyl)-2-(3-fluoro-4-(methylsulfonamido)-phenyl)propanamide]
Ki [1, 4]: 15.5 nM
Ki [2, 5]: 9 nM
IC50 ([3]; Table 2): 1490 nM
